# Measurements published in US20260374773A1, “MULTI-CYCLIC IRAK AND FLT3 INHIBITING COMPOUNDS AND USES THEREOF” (CHILDREN'S HOSPITAL MEDICAL CENTER, priority 2022, published 2026).
# Columns and labels:
# [1] = system: MOLM14 F691L cells; experiment: MOLM14 F691L cell viability (Cell Titer Glo); type: cell-based; details: Homo sapiens
# Experimental: (§1) Both cell lines have activated FLT3 receptors, each of which carry additional resistance mutations in the kinase domain (D835Y and F691L, respectively).
# (§2) MOLM14 D835Y and MOLM14 F691L cells were grown in RPMI-1640 media supplemented with 20% fetal bovine serum (FBS). For viability/cytotoxicity assessments, cells were seeded into 1536-well white polystyrene tissue culture-treated Greiner plates using a Multidrop Combi dispenser (ThermoFisher), in final volume 5 μL of growth media per well, at a density of 1000 cells per well. After cell addition, 23 nL of test compound were transferred into individual wells (22 doses tested for each test compound, with a 1:2 dilution series starting at 10 μM) via a 1536 pin-tool. Bortezomib (final concentration 2.3 μM) was used as a positive control for cell cytotoxicity. Plates were incubated for 48 hours at standard incubator conditions covered by a stainless steel gasketed lid to prevent evaporation. 48 hours post compound addition, 3 μL of Cell Titer Glo (Promega) were added to each well and plates were incubated at room temperature for 15 minutes with the stainless-steel lid in place. Luminescence readings were taken using a Viewlux imager (PerkinElmer) with a 2 second exposure time per plate.
# [2] = system: MOLM14 D835Y cells; experiment: MOLM14 D835Y cell viability (Cell Titer Glo); type: cell-based; details: Homo sapiens
# Experimental: as §1, §2
# This cell line has activated FLT3 receptors, which carries an additional resistance mutation in the kinase domain at D835Y.
# as §2, with “D835Y” for “D835Y and MOLM14 F691L”, “mL” for “μL”, “mM)” for “μM)”
SMILES,"IC50 ([1]; MOLM-14, Table 16, 48 h) [nM]","IC50 ([2]; MOLM-14, Table 16, 48 h) [nM]","IC50 ([1]; MOLM-14, Table 22, 48 h) [nM]","IC50 ([2]; MOLM-14, Table 22, 48 h) [nM]"
"COc1cn2ncc(-c3nc(N[C@@H]4CCCNC4)ccc3F)c2nc1C1CC1 [Compound 2, (R)-6-(5-cyclopropyl-6-methoxypyrazolo[1,5-a]pyrimidin-3-yl)-5-fluoro-N-(piperidin-3-yl)pyridin-2-amine]",14,2,,
"COc1cn2ncc(-c3nc(N[C@H]4CNCC[C@@H]4F)ccc3F)c2nc1C1CC1 [Compound 3, 6-(5-cyclopropyl-6-methoxypyrazolo[1,5-a]pyrimidin-3-yl)-5-fluoro-N-((3S,4S)-4-fluoropiperidin-3-yl)pyridin-2-amine]",6,2,,
"COc1cn2ncc(-c3ccnc(N[C@H]4CNCC[C@@H]4F)n3)c2nc1C(C)(C)O [Compound 3a, 2-(3-(2-(((3S,4S)-4-fluoropiperidin-3-yl)amino)pyrimidin-4-yl)-6-methoxypyrazolo[1,5-a]pyrimidin-5-yl)propan-2-ol]",,,565,86
"COc1cn2ncc(-c3nc(N[C@@H]4CCCNC4)ncc3F)c2nc1C(C)(C)O [Compound 4a, (R)-2-(3-(5-fluoro-2-(piperidin-3-ylamino)pyrimidin-4-yl)-6-methoxypyrazolo[1,5-a]pyrimidin-5-yl)propan-2-ol]",,,101,11
"COc1cn2ncc(-c3ccc(F)c(N[C@@H]4CCCNC4)n3)c2nc1C1CC1 [Compound 5, (R)-6-(5-cyclopropyl-6-methoxypyrazolo[1,5-a]pyrimidin-3-yl)-3-fluoro-N-(piperidin-3-yl)pyridin-2-amine]",127,20,,
"COc1cn2ncc(-c3nc(N[C@H]4CNC[C@@H]4F)ncc3F)c2nc1C(C)(C)O [Compound 5a, 2-(3-(5-fluoro-2-(((3S,4S)-4-fluoropyrrolidin-3-yl)amino)pyrimidin-4-yl)-6-methoxypyrazolo[1,5-a]pyrimidin-5-yl)propan-2-ol]",,,225,25
"COc1cn2ncc(-c3ccc(F)c(N[C@H]4CNCC[C@@H]4F)n3)c2nc1C1CC1 [Compound 6, 6-(5-cyclopropyl-6-methoxypyrazolo[1,5-a]pyrimidin-3-yl)-3-fluoro-N-((3S,4S)-4-fluoropiperidin-3-yl)pyridin-2-amine]",71,11,,
"COc1cn2ncc(-c3nc(N[C@H]4CNCC[C@@H]4F)ncc3F)c2nc1C(C)(C)O [Compound 6a, 2-(3-(5-fluoro-2-(((3S,4S)-4-fluoropiperidin-3-yl)amino)pyrimidin-4-yl)-6-methoxypyrazolo[1,5-a]pyrimidin-5-yl)propan-2-ol]",,,45,5
"COc1cn2ncc(-c3nc(N[C@@H]4CCCNC4)c(C#N)cc3F)c2nc1C(C)(C)O [Compound 9, (R)-5-fluoro-6-(5-(2-hydroxypropan-2-yl)-6-methoxypyrazolo[1,5-a]pyrimidin-3-yl)-2-(piperidin-3-ylamino)nicotinonitrile]",142,16,,
"COc1cn2ncc(-c3nc(N[C@@H]4CCCNC4)c(F)cc3F)c2nc1C(C)(C)O [Compound 11, (R)-2-(3-(3,5-difluoro-6-(piperidin-3-ylamino)pyridin-2-yl)-6-methoxypyrazolo[1,5-a]pyrimidin-5-yl)propan-2-ol]",142,13,,
"COc1cn2ncc(-c3nc(N[C@H]4CNC[C@@H]4F)c(F)cc3F)c2nc1C(C)(C)O [Compound 12, 2-(3-(3,5-difluoro-6-(((3S,4S)-4-fluoropyrrolidin-3-yl)amino)pyridin-2-yl)-6-methoxypyrazolo[1,5-a]pyrimidin-5-yl)propan-2-ol]",449,32,,
"COc1cn2ncc(-c3nc(N[C@H]4CNCC[C@@H]4F)c(F)cc3F)c2nc1C(C)(C)O [Compound 13, 2-(3-(3,5-difluoro-6-(((3S,4S)-4-fluoropiperidin-3-yl)amino)pyridin-2-yl)-6-methoxypyrazolo[1,5-a]pyrimidin-5-yl)propan-2-ol]",113,14,,
"COc1cn2ncc(-c3cccc(N[C@H]4CNC[C@@H]4F)n3)c2nc1C1CC1 [Compound 19, 6-(5-cyclopropyl-6-methoxypyrazolo[1,5-a]pyrimidin-3-yl)-N-((3S,4S)-4-fluoropyrrolidin-3-yl)pyridin-2-amine]",,58,,
"COc1cn2ncc(-c3cccc(N[C@@H]4CCCNC4)n3)c2nc1C1CC1 [Compound 20, (R)-6-(5-cyclopropyl-6-methoxypyrazolo[1,5-a]pyrimidin-3-yl)-N-(piperidin-3-yl)pyridin-2-amine]",,41,,
"COc1cn2ncc(-c3cccc(N[C@H]4CNCC[C@@H]4F)n3)c2nc1C1CC1 [Compound 21, 6-(5-cyclopropyl-6-methoxypyrazolo[1,5-a]pyrimidin-3-yl)-N-((3S,4S)-4-fluoropiperidin-3-yl)pyridin-2-amine]",,46,,
"COc1cn2ncc(-c3nc(N[C@H]4CNCC[C@@H]4F)c(F)cc3F)c2nc1C1CC1 [Compound 22, 6-(5-cyclopropyl-6-methoxypyrazolo[1,5-a]pyrimidin-3-yl)-3,5-difluoro-N-((3S,4S)-4-fluoropiperidin-3-yl)pyridin-2-amine]",,2,,
"COc1cn2ncc(-c3nc(N[C@H]4CNC[C@@H]4F)c(F)cc3F)c2nc1C1CC1 [Compound 24, 6-(5-cyclopropyl-6-methoxypyrazolo[1,5-a]pyrimidin-3-yl)-3,5-difluoro-N-((3S,4S)-4-fluoropyrrolidin-3-yl)pyridin-2-amine]",,2,,

# The remaining lines, values ahead:
"IC50 ([1]; MOLM-14, Table 16, 48 h) [nM]","IC50 ([2]; MOLM-14, Table 16, 48 h) [nM]","IC50 ([1]; MOLM-14, Table 22, 48 h) [nM]","IC50 ([2]; MOLM-14, Table 22, 48 h) [nM]",SMILES
,,,7,"COc1cn2ncc(-c3ccnc(N[C@H]4CNCC[C@@H]4F)n3)c2nc1C1CC1 [Compound 7a, 4-(5-cyclopropyl-6-methoxypyrazolo[1,5-a]pyrimidin-3-yl)-N-((3S,4S)-4-fluoropiperidin-3-yl)pyrimidin-2-amine]"
,,,26,"COc1cn2ncc(-c3ccnc(N[C@H]4CNC[C@@H]4F)n3)c2nc1C1CC1 [Compound 8a, 4-(5-cyclopropyl-6-methoxypyrazolo[1,5-a]pyrimidin-3-yl)-N-((3S,4S)-4-fluoropyrrolidin-3-yl)pyrimidin-2-amine]"
,,,29,"COc1cn2ncc(-c3cncc(N[C@@H]4CCCNC4)n3)c2nc1C1CC1 [Compound 11a, (R)-6-(5-cyclopropyl-6-methoxypyrazolo[1,5-a]pyrimidin-3-yl)-N-(piperidin-3-yl)pyrazin-2-amine]"
,,,12,"COc1cn2ncc(-c3cncc(N[C@H]4CNCC[C@@H]4F)n3)c2nc1C1CC1 [Compound 12a, 6-(5-cyclopropyl-6-methoxypyrazolo[1,5-a]pyrimidin-3-yl)-N-((3S,4S)-4-fluoropiperidin-3-yl)pyrazin-2-amine]"
,,,4,"COc1cn2ncc(-c3nc(N[C@H]4CNC[C@@H]4F)ncc3F)c2nc1C1CC1 [Compound 13a, 4-(5-cyclopropyl-6-methoxypyrazolo[1,5-a]pyrimidin-3-yl)-5-fluoro-N-((3S,4S)-4-fluoropyrrolidin-3-yl)pyrimidin-2-amine]"
,,,1,"COc1cn2ncc(-c3nc(N[C@@H]4CCCNC4)ncc3F)c2nc1C1CC1 [Compound 14a, (R)-4-(5-cyclopropyl-6-methoxypyrazolo[1,5-a]pyrimidin-3-yl)-5-fluoro-N-(piperidin-3-yl)pyrimidin-2-amine]"
,,,2,"COc1cn2ncc(-c3nc(N[C@H]4CNCC[C@@H]4F)ncc3F)c2nc1C1CC1 [Compound 15a, 4-(5-cyclopropyl-6-methoxypyrazolo[1,5-a]pyrimidin-3-yl)-5-fluoro-N-((3S,4S)-4-fluoropiperidin-3-yl)pyrimidin-2-amine]"
